For this assay, the system named is Beet Armyworm (Spodoptera exigua). The assay can be described thus: Bioassays on BAW, 128-well diet tray assay. It counts as in vivo. As to conditions: percent mortality, second instar larvae, 50 μg/cm^2 on artificial diet, five to seven days, 25° C.; Table 3. On the procedure:
Certain molecules disclosed in this document were tested against BAW and CEW and CL using procedures described in the following examples. In the reporting of the results, the “BAW & CEW & CL Rating Table” was used (See Table Section).
Bioassays on BAW (Spodoptera exigua)
Bioassays on BAW were conducted using a 128-well diet tray assay. one to five second instar BAW larvae were placed in each well (3 mL) of the diet tray that had been previously filled with 1 mL of artificial diet to which 50 μg/cm^2 of the test compound (dissolved in 50 μL of 90:10 acetone-water mixture) had been applied (to each of eight wells) and then allowed to dry. Trays were covered with a clear self-adhesive cover, and held at 25° C., 14:10 light-dark for five to seven days. Percent mortality was recorded for the larvae in each well; activity in the eight wells was then averaged. The results are indicated in the table entitled “Table 3: Assay Results” (See Table Section).

`O=C(NCc1ccc(/C=C/C(c2cc(Cl)c(F)c(Cl)c2)C(F)(F)F)cc1Cl)C1CC1` (stereo not drawn) [CC15]: the “BAW Rating” value is “A (50-100)”.

Take `O=C(NCc1ccc(/C=C/C(c2ccc(Cl)c(Cl)c2)C(F)(F)F)cc1Cl)C1CC1` (stereo not drawn) [CC17]: the “BAW Rating” value is “A (50-100)”.

Regarding `O=C(CC(F)(F)F)NCc1ccc(/C=C/C(c2ccc(Cl)c(Cl)c2)C(F)(F)F)cc1Cl` (stereo not drawn) [CC18], the “BAW Rating” value is given as “A (50-100)”.

Consider `CSCCC(=O)NCc1ccc(/C=C/C(c2cc(Cl)c(Cl)c(Cl)c2)C(F)(F)F)cc1Cl` (stereo not drawn) [CC19], for which the “BAW Rating” value is reported as “A (50-100)”.

`FC(F)(F)C(/C=C/c1ccc(CNC(=S)C2CC2)c(Cl)c1)c1cc(Cl)c(Cl)c(Cl)c1` (stereo not drawn) [CC20]: the “BAW Rating” value was “A (50-100)”.

Regarding `O=C(NCc1ccc(/C=C/C(c2cc(Cl)cc(Cl)c2)C(F)(F)F)cc1C(F)(F)F)C1CC1` (stereo not drawn) [CC21], the “BAW Rating” value is on record as “A (50-100)”.

For `O=C(NCc1ccc(/C=C/C(c2cc(Cl)c(Cl)c(Cl)c2)C(F)(F)F)cc1C(F)(F)F)C1CC1` (stereo not drawn) [CC22], the “BAW Rating” value is “A (50-100)”.

In the case of `O=C(NCc1ccc(/C=C/C(c2cc(Cl)c(Cl)c(Cl)c2)C(F)(F)F)cc1C(F)(F)F)c1cccnc1` (stereo not drawn) [CC23], the “BAW Rating” value was “A (50-100)”.

Turning to `O=C(CC(F)(F)F)NCc1ccc(/C=C/C(c2cc(Cl)c(Cl)c(Cl)c2)C(F)(F)F)cc1C(F)(F)F` (stereo not drawn) [CC24], the “BAW Rating” value was “A (50-100)”.

`O=C(CC(F)(F)F)NCc1ccc(/C=C/C(c2cc(Cl)c(Cl)c(Cl)c2)C(F)(F)F)cc1Br` (stereo not drawn) [CC25]: the “BAW Rating” value is “A (50-100)”.

On to `O=C(NCc1ccc(/C=C/C(c2cc(Cl)c(Cl)c(Cl)c2)C(F)(F)F)cc1Br)C1CC1` (stereo not drawn) [CC26], for which the “BAW Rating” value is on record as “A (50-100)”.

In the case of `O=C(CC(F)(F)F)NCc1ccc(/C=C/C(c2cc(Cl)c(Cl)c(Cl)c2)C(F)(F)F)cc1F` (stereo not drawn) [CC27], the “BAW Rating” value is on record as “A (50-100)”.

Take `O=C(NCc1ccc(/C=C/C(c2cc(Cl)c(Cl)c(Cl)c2)C(F)(F)F)cc1F)C1CC1` (stereo not drawn) [CC28]: the “BAW Rating” value was “A (50-100)”.

Consider `O=C(C1CC1)N(Cc1ccccn1)Cc1ccc(/C=C/C(c2cc(Cl)c(Cl)c(Cl)c2)C(F)(F)F)cc1C(F)(F)F` (stereo not drawn) [CC29, (E)-N-(Pyridin-2-ylmethyl)-N-(4-(4,4,4-trifluoro-3-(3,4,5-trichlorophenyl)but-1-enyl)-2-(trifluoromethyl)benzyl)cyclopropanecarboxamide], for which the “BAW Rating” value is given as “A (50-100)”.

Take `CS(=O)(=O)CCC(=O)NCc1ccc(/C=C/C(c2cc(Cl)c(Cl)c(Cl)c2)C(F)(F)F)cc1Cl` (stereo not drawn) [CC30, (E)-N-(2-Chloro-4-(4,4,4-trifluoro-3-(3,4,5-trichlorophenyl)but-1-en-1-yl)benzyl)-3-(methylsulfonyl)propanamide]: the “BAW Rating” value was “A (50-100)”.

`CCNC(=O)NCc1ccc(/C=C/C(c2cc(Cl)cc(Cl)c2)C(F)(F)F)cc1Cl` (stereo not drawn) [CC31, (E)-1-(2-Chloro-4-(3-(3,5-dichlorophenyl)-4,4,4-trifluorobut-1-en-1-yl)benzyl)-3-ethylurea]: the “BAW Rating” value is given as “B (More than 0-Less than 50)”.

With `CCNC(=O)NCc1ccc(/C=C/C(c2cc(Cl)c(Cl)c(Cl)c2)C(F)(F)F)cc1C(F)(F)F` (stereo not drawn) [CC32], the “BAW Rating” value is given as “A (50-100)”.

As to `CCNC(=O)NCc1ccc(/C=C/C(c2cc(Cl)c(Cl)c(Cl)c2)C(F)(F)F)cc1Br` (stereo not drawn) [CC33], the “BAW Rating” value was “A (50-100)”.

As to `O=C(NCc1ccc(/C=C/C(c2cc(Cl)c(Cl)c(Cl)c2)C(F)(F)F)cc1Cl)N1CCOCC1` (stereo not drawn) [CC34], the “BAW Rating” value is given as “A (50-100)”.

Turning to `CN(C)C(=O)NCc1ccc(/C=C/C(c2cc(Cl)c(Cl)c(Cl)c2)C(F)(F)F)cc1Cl` (stereo not drawn) [CC36, (E)-3-(2-Chloro-4-(4,4,4-trifluoro-3-(3,4,5-trichlorophenyl)but-1-en-1-yl)benzyl)-1,1-dimethylurea], the “BAW Rating” value is listed as “A (50-100)”.

Regarding `CCNC(=S)NCc1ccc(/C=C/C(c2cc(Cl)c(Cl)c(Cl)c2)C(F)(F)F)cc1Cl` (stereo not drawn) [CC37, (E)-1-(2-Chloro-4-(4,4,4-trifluoro-3-(3,4,5-trichlorophenyl)but-1-en-1-yl)benzyl)-3-ethylthiourea], the “BAW Rating” value is listed as “A (50-100)”.
